Experimental data: PMC10663846 (The Journal of Biological Chemistry, 2023)
Peptide text beside a SMILES is read from it.

Legend:
[1] = human serum diluted 1:4 in RPMI 1640, 37 °C, peptide 10 μg/ml from DMSO stock, 48 h time course, ESI-MS peak area normalized to Angiotensin I
Protocol: Human serum was diluted 1:4 in Gibco RPMI 1640 media (ThermoFisher Scientific, Cat. No. 11–875–093) and incubated at 37 °C for 15 min before peptide stock was added at final concentration of 10 μg/ml. Time points were taken at room temperature and mixed with 200 μl of 3% TFA before a 15 min incubation on ice. Samples were centrifuged at 16,000g for 2.5 min and the supernatant was prepared for C18 desalting by adding 100 μl of 20% acetonitrile, 2% TFA before storage at −20 °C overnight. Samples were processed through Pierce C18 spin columns (ThermoFisher Scientific, Cat. No. 89870) according to the manufacturer’s instructions. Desalted samples were dried under nitrogen and stored at −20 °C until mass spectrometry analysis.
For MALDI-TOF-MS analysis, samples were reconstituted in 200 μl of 0.1% formic acid. Samples were diluted 1:10 in a MALDI matrix containing a 50 fmol/μl solution of Angiotensin I as a control, spotted onto the plate at a volume of 1 μl, and run on an Axima Performance MALDI TOF/TOF mass spectrometer (Shimadzu Scientific Instruments). Data was visualized with Axima Launchpad 2.8 software (Shimadzu Scientific Instruments). For ESI-MS analysis, samples were run on an Orbitrap Exploris 480 (ThermoFisher Scientific). […] ThermoFisher’s Xcalibur 4.0 Data System was used for peptide quantification via peak area (normalized based on Angiotensin I abundance).

[2] = tested on: OVCAR8 cells and human PBMCs co-culture, TNFα secretion; assay: OVCAR8:PBMC co-culture, secreted TNFα (ELISA); type: cell-based; conditions: 1:10 OVCAR8:PBMC, 24 h, MN1.4 500, 100 or 10 μM, rPD-L1 1 μM
Protocol: The concentration of PBMCs required for a 1:10 OVCAR8:PBMC ratio was calculated from the OVCAR8 concentration.

CC[C@H](C)[C@H](NC(=O)[C@H](CCSC)NC(=O)[C@H](CS)NC(=O)[C@H](CCCNC(=N)N)NC(=O)[C@H](Cc1ccc(O)cc1)NC(C)=O)C(=O)N[C@@H](CO)C(=O)N[C@@H](Cc1ccc(O)cc1)C(=O)NCC(=O)NCC(=O)N[C@@H](C)C(=O)N[C@@H](CC(=O)O)C(=O)N[C@@H](Cc1ccc(O)cc1)C(=O)N[C@@H](CCCCN)C(=O)N[C@@H](CCCNC(=N)N)C(=O)N[C@H](C(=O)N[C@H](C(=O)N[C@H](C(N)=O)C(C)C)[C@@H](C)O)[C@@H](C)CC
serum modification products (MALDI-TOF-MS): 119 Da

CC[C@H](C)[C@@H]1NC(=O)[C@H](CCSC)NC(=O)[C@H](C)NC(=O)[C@H](CCCNC(=N)N)NC(=O)[C@@H](NC(C)=O)CSSC[C@@H](C(N)=O)NC(=O)[C@H]([C@@H](C)O)NC(=O)[C@H]([C@@H](C)CC)NC(=O)[C@H](CCCNC(=N)N)NC(=O)[C@H](CCCCN)NC(=O)[C@H](Cc2ccc(O)cc2)NC(=O)[C@H](CC(=O)O)NC(=O)[C@H](C)NC(=O)CNC(=O)CNC(=O)[C@H](Cc2ccc(O)cc2)NC(=O)[C@H](CO)NC1=O [MN1.2] (HELM PEPTIDE1{[ac].C.R.A.M.I.S.Y.G.G.A.D.Y.K.R.I.T.C.[am]}$PEPTIDE1,PEPTIDE1,2:R3-18:R3$$$V2.0)
serum stability, degradation after 48 h [1]: detected at very low levels

Ac-YRCMISYGGADEKRITV-NH2 [MN_Null]
TNFα levels compared to untreated co-culture control [2]: less immunosuppressive activity as compared to MN1.4
